Values quoted from earlier work in patent US20110033536A1, “24-HOUR SUSTAINED-RELEASE METOCLOPRAMIDE” (POSIVISIONARY SOLUTIONS LLP, priority 2008, published 2011).

## CCN(CC)CCNC(=O)c1cc(Cl)c(N)cc1OC [metoclopramide]
Literature (Bateman 1979; Parlak 2005)
  Plasma concentrations at which undesirable side effects (akathisia) are present: above 100 nanograms per milliliter
Relationship stated as determined, no own test
  Plasma concentrations related to extrapyramidal effects (akathisia): above 120 ng/ml
